Results reported in patent US12502369B2, “Methods of cancer treatment” (K-GEN, INC., priority 2015, dated 2025).
“Also recorded” adds a separate entry of the source.

Legend:
[1] = tested on: K-Ras mutant pancreatic, lung, and colon cancer cell lines, leukemia cell lines; experiment: Proliferation assays, panel of cancer cell lines (summary statements); type: cell-based
Procedure: Briefly, cells at a density of 1,000-10,000 cells/well were seeded in 96-well plates and incubated at 37′C for 24 hours. A series of 9 different concentrations of compound stocks (500×) were created by 3-fold serial dilution in DMSO. These compounds were further diluted in culture media and then added to cells so that the final DMSO concentration was 0.2%. After 96 hours of incubation, 50 μL of CellTiter Glo reagent (Promega) was added to each well and luminescence was measured after 10 minutes using EnVision (PerkinElmer). […] The dose range for most compounds was 4.6 nM-30 μM. The dose ranges for some compounds were adjusted downward to 0.46 nM-3 μM or 0.08 nM-0.5 μM or 0.03 nM-0.2 μM. Luminescence from cells treated with […] alone was set as Max and % of inhibition was calculated as follows: Inhibition %=(Max-Sample value)/Max*100. Data was analyzed using XL-fit software (ID Business Solutions Ltd.) and EC50, relative EC50, and % of top inhibition were calculated. The results are shown in Tables 3-6 for pancreatic cancer, lung cancer, colon/gastric cancer, and leukemia cell lines.

[2] = literature reports; cited from earlier work
PKCδ = PKCδ Tyr311 phosphorylation in A549, HCT116, SW620, Panc02.13 cells, Western blot; type: cell-based; conditions: 30 minutes
Procedure: (§1) Non-cancerous lung fibroblast cell line HFL-1 or cancer cells (2-8 million cells) were seeded in 10 cm dishes and grown overnight so that the cells were about 40-80% confluent before treatment with the compound. Cells were then treated with different drugs at indicated concentrations (see descriptions for FIG. 11 and FIG. 12) for 30 minutes. Cell lysate preparation, protein quantitation, SDS-PAGE, and Western blotting procedures are described in Example 2 and 4. Primary antibodies used in this Example and later Examples of this application are shown in Table A. Secondary antibodies Anti-mouse IgG HRP conjugate or Anti-rabbit IgG HRP conjugate (dilutions from 1:2000-1:10000) were used. Western blot membranes were scanned using Imagequant LAS4000 (GE). The results are shown in FIG. 11A and FIG. 11B for HFL-1 cells and FIG. 11C and FIG. 12 for A549 cells.

PKCμ = PKCμ phosphorylation in A549, HCT116, SW620, Panc02.13 cells, Western blot; type: cell-based; conditions: 30 minutes
Procedure: as §1, with “(GE).” for “(GE). The results are shown in FIG. 11A and FIG. 11B for HFL-1 cells and FIG. 11C and FIG. 12 for A549 cells.”

[3] = tested on: PKC isoforms in Panc2.13 cells; experiment: Time course of activation of PKC isoforms in Panc2.13; type: cell-based; conditions: extended periods (16 h and 24 h), K102 0.1 μM, K103 0.01 μM versus K101A
Procedure: Cells of pancreatic cancer cell line Panc2.13 were seeded as described above, and the cell confluence was between 40-80% the next day. […] Phosphorylation at multiple PKC isoforms, such as Ser744/748 or Ser916 for PKCμ, phosphorylation at Thr638/641 for PKCα/β, phosphorylation at Ser660 for PKCβII (pan-PKC), phosphorylation at Ser643/676 for PKCδ/θ, and phosphorylation at Thr505 for PKCδ, were detected.

A549 cells = experiment: Soft agar colony formation assay; type: cell-based
Procedure: To prepare the base agar layer (0.6%), melted 1.2% agar solution was mixed 1:1 (v/v) with 2×DMEM/20% FBS medium in a tube by inverting several times and 50 μL of the mixture was immediately transferred to a well in a 96-well flat-bottom microplate. The plate was placed at 4° C. for 30 minutes to allow the base agar layer to solidify. Then, the cell agar layer (agar 0.4%) was prepared by transferring 75 μL of the cell and agar mixture containing 1:1:1 (v/v/v) of 1.2% agar solution, 2×DMEM/20% FBS and cell suspension (0.4-4×10^5/mL) to each well of the plates so that each well contained 1000-10000 cells per well. The plates were placed at 4° C. for 15 minutes and then 75 μL of media were added to each well. After incubating the plates overnight in a CO2 incubator, 50 μL of media with or without 5× final concentrations of compounds were added to each well. Each compound was tested in 9-point 3-fold dilution series. The plates were incubated for 7-10 days at 37° C. At the end of incubation period, 28 μL of Calcein AM solution (5 μM) was added to the center of each well. The plates were incubated at 37° C. for 45 minutes before scanning on Acumen (TTP Labtech). Each compound was tested in triplicates. Data was analyzed and compound EC50s were calculated using GraphPad Prism 5.

[4] = tested on: PKC substrates in Panc2.13 cells; experiment: Global PKC activation (phosphorylated PKC substrates), Western blot, Panc2.13; type: cell-based; conditions: Phospho-(Ser) PKC Substrate Antibody
Procedure: (§2) A549 lung cancer cells (˜3 million cells) were seeded in 10 cm tissue culture dishes and grown overnight. Cells were then treated with different drugs at indicated concentrations (see FIG. 9A for global activation of PKC and FIG. 10 for activation of PKC isoforms) for 30 minutes. Panc2.13 pancreatic cells (˜5 million) were seeded and treated as in FIG. 9B for global activation of PKC. Cell lysate preparation, protein quantitation, SDS-PAGE, and Western blotting procedures are described in Example 2. Primary antibodies used in this Example and later Examples of this application are shown in Table A. Western blot membranes were scanned using Odyssey® Imaging System (Licor Biosciences) if secondary antibodies Anti-mouse IgG Dylight 800 conjugate or Anti-rabbit IgG DyLight 680 conjugate (1:10000)(Cell signaling or similar IR 2nd antibodies from different vendors) were used. Alternatively, Imagequant LAS4000 (GE) was used to scan membranes if secondary antibodies Anti-mouse IgG HRP conjugate or Anti-rabbit IgG HRP conjugate (dilutions from 1:2000-1:10000) were used.

[5] = tested on: PKC isoforms in A549 cells; experiment: Activation of PKC isoforms, Western blot, A549; type: cell-based; conditions: 30 minutes
Procedure: as §2

[6] = tested on: PKC substrates in A549 cells; experiment: Global PKC activation (phosphorylated PKC substrates), Western blot, A549; type: cell-based; conditions: 30 minutes, Phospho-PKC substrate Motif MultiMab
Procedure: as §2

[7] = tested on: PKC isoforms and Erk1/2 in Mino and Namalwa cells; experiment: PKC inhibitor effect on K101A-mediated phosphorylation of PKCs and Erk1/2 in Mino and Namalwa cells; type: cell-based
Procedure: Cell lysis, protein quantitation, and Western blot analysis were performed as described above in Example 2 and 4. […] Again, these PKC inhibitor studies indicate the anti-proliferative effects of the PKC activators appear to be positively associated with phosphorylation and activation of novel PKC isoforms and PKCγ, and negatively associated with the phosphorylation of PKCδ at Tyr311.

[8] = tested on: PKC isoforms and Erk1/2 in A549 cells; experiment: PKC inhibitor effect on PKC activator-mediated phosphorylation of PKCs and Erk1/2, A549; type: cell-based; conditions: 30 minutes
Procedure: To assay if PKC inhibitors have any effects on the PKC activator-mediated phosphorylation of PKCs, A549 cells were pre-treated with DMSO, PKC inhibitors Go6983 (0.3 μM or 1 μM) or Sotrastaurin (0.3 μM or 1 μM) for 30 minutes before adding PKC activators K101A (1 μM) or K102 (0.1 μM) for another 30 minutes (FIG. 22). Cell lysis, protein quantitation, and Western blot analysis were performed as described above in Example 2 and 4. […] Phosphorylation of PKCα/β at Thr638/641 was not affected by the inhibitors (FIG. 22A). […] These PKC inhibitor studies indicate that blocking phosphorylation and activation of various isoforms of PKC is correlated with inhibition of the anti-proliferative effects of the PKC activators.
Cell lysis, protein quantitation, and Western blot analysis were performed as described above in Example 2 and 4. […] These PKC inhibitor studies also indicate that phosphorylation and activation of novel PKC isoforms and PKCμ is required for the anti-proliferative effects of the PKC activators whereas phosphorylation of PKCδ at Tyr311 is correlated with inhibition of the anti-proliferative effects of PKC activators.

Mino cells = experiment: Proliferation assay, PKC inhibitors in combination with PKC activators, Mino; type: cell-based; conditions: Sotrastaurin 0.3/1 μM, Go6983 0.1/1 μM, Go6976 0.3/1 μM, Enzastaurin 1/3 μM
Procedure: PKC inhibitor studies were performed as described in Example 8, 9, and 10. […] Thus, PKC activator-mediated anti-proliferation effects may be dependent on activation of PKC isoforms from the novel PKC class.

A549 = experiment: Proliferation assay, PKC inhibitor in combination with PKC activators, A549; type: cell-based; conditions: Go6983 0.1 μM or 1 μM with K101A or K102
Procedure: To assess if activation of different classes of PKC is required for anti-proliferation effect of PKC activators, Sotrastaurin, a PKC inhibitor targeting both conventional and novel classes of PKC, was tested in combination with PKC activators in the proliferation assays. Proliferation assay in lung cancer cell line A549 (FIG. 15) and in pancreatic cell line MiaPaCa-2 (FIG. 16) was performed as described in Example 1. […] Then, K101A or K102 was tested in 8- or 9-point titrations in the presence of DMSO or Sotrastaurin (0.1 μM or 1 μM). […] Thus, PKC activator-mediated anti-proliferation effects are dependent on activation of PKC isoforms from conventional, or novel, or both classes of PKCs.
To assess if PKC activation is required for anti-proliferation effect of PKC activators in cancer cell lines that are sensitive to these activators, a pan-PKC inhibitor Go6983, targeting classes of PKCs (conventional, novel, atypical, and PKCμ), was tested in combination with PKC activators in the proliferation assays. Proliferation assay in lung cancer cell line A549 (FIG. 17) and in pancreatic cell line MiaPaCa-2 (FIG. 18) was performed as described in Example 1. […] Then, K101A or K102 was tested in 8- or 9-point titrations in the presence of DMSO or Go6983 (0.1 μM or 1 μM). […] Thus, PKC activation is required for anti-proliferation effect of PKC activators.
Proliferation assay was performed as described in Example 1. […] Thus, PKC activator-mediated anti-proliferation effects appear mainly dependent on activation of novel PKC isoforms.

Namalwa cells = experiment: Proliferation assay, PKC inhibitors in combination with PKC activators, Namalwa; type: cell-based; conditions: Sotrastaurin 0.3/1 μM, Go6983 0.1/1 μM, Go6976 0.3/1 μM, Enzastaurin at very high concentration of 10 μM
Procedure: PKC inhibitor studies were performed as described in Example 15. […] Thus, PKC activator-mediated anti-proliferation effects may be dependent on activation of novel PKC isoforms.

MiaPaCa-2 = experiment: Proliferation assay, PKC inhibitor in combination with PKC activators, MiaPaCa-2; type: cell-based; conditions: Go6983 0.1 μM or 1 μM with K101A or K102
[9] = inhibitor pre-treatment 0.3 μM or 1 μM

For CCCCCCCCCCCCCC(=O)O[C@@H]1[C@@H](C)[C@@]2(O)[C@@H](C=C(CO)C[C@]3(O)C(=O)C(C)=C[C@@H]23)[C@@H]2C(C)(C)[C@]12OC(C)=O [Compound K-103, 12-O-Tetradecanoylphorbol-13-acetate], the “potency in proliferation inhibition relative to prostratin” value [1] is given as “more potent in proliferation inhibition”, the tumor promotion [2] is given as “tumor-promoting” and the “PKCδ activation, phosphorylation at Tyr311” value (PKCδ) is given as “observed for PKC activator insensitive cell lines HCT116 and SW620 but not as significantly for sensitive cell lines A549 and Pan 02,13; also recorded: observed for cell lines HCT116 and SW620 but not as significantly for cell lines A549 and Panc02.13”. For the same compound, the “PKCμ activation, phosphorylation at Ser744/748” value (PKCμ) was “observed for all four cancer cell lines”, the “PKCμ activation, phosphorylation at Ser916” value (PKCμ) was “observed primarily in cell lines A549 and Pan 02,13; also recorded: observed primarily in cell lines A549 and Panc02.13” and the “reducing the phosphorylation at βII Ser660 of PKC (pan), to a lesser extent Thr638/641 of PKCα/β” value [3] was “more potent”. The “number of colonies formed in soft agar” value (A549 cells; 7-10 days, 9-point dilution series) was “reduced the number of colonies”, the “potency rank in soft agar assay” value (A549 cells; K103, followed by K102, K101A, and K101E) was “Most potent compound” and the “phosphorylation of PKC substrates (global activation of PKC)” value [4] was “potently elevated”. The “P-PKCδ (Thr505) and P-PKCδ/θ (Ser643/676)” value [5] was “potently increased”, the “P-PKC (pan)(βII Ser660) and P-PKCα/β (Thr638/641)” value ([5]; high levels already in DMSO treated cells) was “no further increases” and the “phosphorylation of PKC substrates (global activation of PKC)” value [6] was “potently elevated”.
For COc1ccc2c(c1)c(C1=C(c3c[nH]c4ccccc34)C(=O)NC1=O)cn2CCCN(C)C [Go6983], the “phosphorylation of PKCδ at Tyr311 induced by PKC inhibitor” value ([7]; inhibitor pre-treatment 30 minutes) was “induced robust phosphorylation”, the “K101A-induced phosphorylation of PKCμ at Ser916 or Ser744/748, PKCδ at Thr505, and Erk” value ([7]; inhibitor pre-treatment 30 minutes (Go6983, Sotrastaurin 1 μM)) was “completely abolished” and the “K101A- and K102-induced phosphorylation of Erk1/2” value [8, 9] was “blocked dose-dependently”. For the same compound, the “K101A- or K102-induced phosphorylation, P-PKCμ (Ser916), P-PKCμ (Ser744/748), P-PKCδ (Thr505)” value [8, 9] was “blocked in a dose-dependent manner”, the “Phosphorylation of PKCα/β at Thr638/641” value [8, 9] was “not affected” and the “K101A- or K102-induced phosphorylation of PKCμ at Ser916 or Ser744/748, PKCδ at Thr505, and Erk” value ([8]; inhibitor pre-treatment 1 μM) was “completely abolished”. For the same compound, the “phosphorylation of PKCδ at Tyr311 induced by PKC inhibitor” value ([8]; inhibitor pre-treatment 1 μM) was “induced phosphorylation of PKCδ at Tyr311”, the “effect on PKC activator-mediated anti-proliferation effects” value (shortened to “effect”) (Mino cells) was “dose-dependently blocked” and the “effect” value (A549) was “inhibited the PKC activator-mediated anti-proliferation effects in a dose-dependent manner”. For the same compound, the “effect” value (Namalwa cells) was “dose-dependently blocked” and the “effect” value (MiaPaCa-2) was “inhibited the PKC activator-mediated anti-proliferation effects in a dose-dependent manner”.
